In patent US11007182B2, “Use of atpenin to activate innate immunity” (Health Research, Inc., priority 2015, dated 2021):

What was measured:
Assay type in all cases: cell-based, human
[1] = system: APOBEC3A-mediated RNA editing; test: SDHB c.136C>U site-specific RNA editing assay (RT-PCR) in monocyte-enriched PBMCs; conditions: for effect on hypoxia-induced RNA editing: hypoxia 1% O2; for effect on hypoxia-induced RNA editing / induction of APOBEC3A-mediated RNA editing in normoxia: atpenin A5 1-3 μM, DMOG 1 mM, myxothiazol 1 μM; for induction of APOBEC3A-mediated RNA editing in normoxia: TTFA 1 mM
Experimental: Peripheral blood mononuclear cells of anonymous platelet donors were isolated from peripheral blood in Trima Accel™ leukoreduction system chambers (Terumo BCT®, Lakewood, Colo.) after thrombocytapheresis, in accordance with a protocol approved by the institutional review board of Roswell Park Cancer Institute. A density gradient centrifugation method using polysucrose-containing Lymphocyte Separation Medium (Mediatech®, Manassas, Va.) was used for PBMC isolation. MEPs were prepared from PBMCs using the well-established cold aggregation method with slight modification (Mentzer et al 1986). Briefly, PBMCs were subjected to gentle rocking at 4° C. for an hour and aggregated cells that sedimented through fetal bovine serum (FBS; VWR®, Radnor, Pa.) were collected as MEPs (monocyte-enriched PBMCs) after 0.5-3 hours for high monocyte enrichment (˜70% monocytes as assessed by immunofluorocytometry for CD14), or after 8-16 hours for mild enrichment (˜20%-40% monocytes). MEPs were cultured at a density of at least 20 million per ml in 1 or 2 ml per well of 6- or 12-well standard tissue culture plates under 5% CO2 in RPMI-1640 medium (Mediatech®) with 10% FBS, and 100 U per ml penicillin and 100 μg per ml streptomycin (Mediatech®). CD14 positive monocytes were separated in certain experiments from MEPs that were initially cultured for 1 or 2 days using magnetic beads and donut-shaped magnet (EasySep cell isolation kit purchased from STEMCELL Technologies).
For hypoxia, cells were cultured under 1% O2, 5% CO2 and 94% N2 in an XVIVO SYSTEM® (a cell culture system) (Biospherix®, Lacona, N.Y.). ‘Universal’ type I IFN, a hybrid of N-terminal IFNα-2 and C-terminal IFNα-1, produced in E. coli were obtained from PBL Assay Science® (Piscataway, N.J.), and respectively used at 300 U per ml. Unless noted otherwise, hypoxia and/or interferon treatments were for 24 hours. Differential viability of MEPs after 1-day culture in normoxia versus hypoxia was not observed as evaluated by Trypan blue stain.
SDHB c.136C>U site-specific RNA editing, catalyzed by APOBEC3A cytidine deaminase, was quantified by RT-PCR as described (Baysal et al 2013). Total RNA, genomic DNA and plasmid DNA were isolated using material and methods provided with TRIzol™, DNA Wizard Genomic DNA Purification Kit (Promega®), and Plasmid Kit (Qiagen®, Germantown, Md.), respectively. RNA/DNA was quantified by spectrophotometry on a Nanodrop™ 2000 instrument (Thermo Fisher®). Proteins were quantified using Bio-Rad® Dc™ assay with bovine serum albumin standards. Statistical tests were two-tailed and were performed using R 3.0, Excel™ 2010 (Microsoft®, Redmond, Wash.), or Prism™ 6.0 (GraphPad®, San Diego, Calif.) software.
Atpenin A5 is purchased from Cayman Chemical (CAS 119509-24-9), dissolved in DMSO and used in final concentrations of 1-3 μM in culture. DMOG (dimethyloxalylglycine; CAS 89464-63-1) and myxothiazol (CAS 76706-55-3) are purchased from Sigma-Aldrich, dissolved in DMSO and used in final concentrations of 1 mM and 1 μM, respectively.

HIF1α [2] = test: HIF1α stabilization (immunoblotting) in CD14 negative lymphocytes and CD14 positive monocytes; conditions: FIG. 5
Description: FIG. 5. HIF1α is stabilized in CD14 negative lymphocytes, but not in CD14 positive monocytes in hypoxia (H, 1% O2, day 1). […] CD14± cells are unsorted PBMCs.
(§1) We used primary human monocytes and 293T HEK cells to investigate their response to hypoxia and to cell-permeable complex II inhibitors (atpenin A5, TTFA) using cell culture methods, high throughout RNA sequencing, qPCR, immunoblotting and oxygen consumption assays.

[3] = system: hypoxia-related gene expression in monocytes; test: RNA seq and RT-qPCR of hypoxic gene expression in monocytes
Description: FIG. 4. AtA5 treatment in normoxia induces hypoxic gene expression in monocytes.
as §1
On the contrary, AtA5 reduces cellular oxygen consumption in peripheral blood mononuclear cells and inhibits HIF-la stabilization in mildly hypoxic conditions in 293T cells (FIG. 6).

HIF1α [4] = test: HIF1α stabilization (immunoblotting) in 293T cells; conditions: for HIF1α stabilization in mild hypoxia: 6% O2
Experimental: (§2) FIG. 6. Inhibition of complex II reduces oxygen consumption and antagonizes HIF-1. […] DMSO indicates the untreated vehicle control. […] The oxygen levels are measured by a fluorescent dye, which is quenched by oxygen (i.e., more fluorescence, less oxygen). Results are averages from 3 donors' monocyte-enriched PBMCs with SEMs shown in dashed lines.
as §1

monocyte-enriched PBMCs = test: Oxygen consumption assay (oxygen-quenched fluorescent dye) in monocyte-enriched PBMCs; conditions: averages from 3 donors' monocyte-enriched PBMCs
Experimental: as §2, §1

Compound | effect on hypoxia-induced RNA editing ([1]; MEPs) | induction of APOBEC3A-mediated RNA editing in normoxia ([1]; normoxia, MEPs) | HIF1α stabilization in normoxia in lymphocytes and monocytes (HIF1α [2]) | HIF1α stabilization in mild hypoxia (HIF1α [4]; 293T cells, day 1) | oxygen consumption relative to control cells (monocyte-enriched PBMCs) | other results
COC(=O)CNC(=O)C(=O)OC [DMOG, dimethyloxalylglycine] | inhibited hypoxia-induced RNA editing | did not induce RNA editing in normoxia | stabilizes HIF1α in both lymphocytes and monocytes | – | – | –
O=C(CC(=O)C(F)(F)F)c1cccs1 [TTFA, thenoyltrifluoroacetone] | – | induces RNA editing in normoxia | – | – | – | –
COc1[nH]c(=O)c(C(=O)[C@@H](C)C[C@H](C)[C@@H](Cl)CCl)c(O)c1OC [atpenin A5] | without inhibiting the hypoxia-induced RNA editing | induced APOBEC3A-mediated RNA editing in normoxia | does not stabilize HIF1α in normoxia in lymphocytes or monocytes | inhibits HIF1α stabilization in mild hypoxia | reduces oxygen consumption relative to control cells (blue), but does not abolish it | cell population in which induced RNA editing occurs ([1]; CD14 positive and CD14 negative cells separated from MEPs after culture): induced RNA editing occurs in CD14+ monocytes; RNA editing levels induced in normoxia relative to hypoxic stimulation ([1]; normoxia versus hypoxia, FIG. 1): comparable to levels observed upon hypoxic stimulation; effect on RNA editing in combination with interferon ([1]; normoxia, MEPs, type I IFN 300 U per ml): synergistic effect with interferon-induced RNA editing levels; monocyte-enriched PBMCs from donors (biological replicates) with normoxic induction of RNA editing ([1]; normoxia, p=0.00013, two-sided Wilcoxon pairwise test): 19 of 19; effect on A3A-mediated RNA editing or transcript induction in hypoxic monocytes ([3]; hypoxic monocytes): does not inhibit A3A-mediated RNA editing or transcript induction in hypoxic monocytes; expression of hypoxia-related and pro-angiogenic genes (RT-qPCR) ([3]; normoxic treatment of monocytes): causes upregulation of many hypoxia-related and pro-angiogenic genes including VEGFA, CXCL8 (IL8) and CXCR4; transcriptome-scale changes (RNA seq and RNA editing analyses) ([3]; normoxic treatment of monocytes, FIG. 4): closely mimics the hypoxia effects in inducing transcriptome-scale changes; HIF-1α stabilization in normoxia in 293T cells (HIF1α [4]; normoxic treatment, 293T embryonic kidney cells, FIG. 6): does not stabilize HIF-la
CO/C(=C/C(N)=O)[C@H](C)[C@H](/C=C/c1csc(-c2csc([C@@H](C)/C=C/C=C/C(C)C)n2)n1)OC [myxothiazol] | inhibited hypoxia-induced RNA editing | did not induce RNA editing in normoxia | – | inhibits it both in mild and severe hypoxia | completely inhibit oxygen consumption | HIF1α stabilization in severe hypoxia (HIF1α [4]; 1% O2, 293T cells, day 1): inhibits it both in mild and severe hypoxia
antimycin A | – | – | – | – | completely inhibit oxygen consumption | –
